The text below walks through data of PubChem BioAssay (NCI).

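Growth conditions: 96-well plates. Treatment: test compound, 48 hours, 5 concentrations. Analysis: linear interpolation between bracketing concentrations; unreached endpoints set to highest concentration. GI50: concentration for 50% inhibition of growth. TGI denotes the concentration required for complete inhibition of growth.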

Assay in all cases: inhibition of tumour cell growth, NCI panel, 48 h
For assay [1], the system named is SF-539 CNS.
Assay [2] relates to DU-145 prostate.
The test system of assay [3] is SNB-75 CNS.
Assay [4] concerns SN12C renal.
Assay [5] concerns SW-620 colon.
The subject of assay [6] is MDA-MB-231 breast.
Assay [7] relates to M14 melanoma.
Assay [8] relates to OVCAR-8 ovarian.
Assay [9] concerns ACHN renal.
Assay [10] deals with MOLT-4 leukemia.

Regarding `COc1cc(-c2c(C#N)c(N)nc(N3CCOCC3)c2C#N)cc(OC)c1OC`, the GI50 in assay [1] is above 100 µM; in assay [2], above 100 µM; in assay [3], 1.64 µM; in assay [4] it was above 100 µM; in [5], above 100 µM; in [6] it was 22.6 µM. Besides, the GI50 in [7], in assay [8], in assay [9] and in assay [10] was above 100 µM in each case. The TGI is above 100 µM in assay [1]; above 100 µM in [2]; 54.4 µM in assay [3]; above 100 µM in assay [4]; above 100 µM in [5]; 78.9 µM in [6]. Also, the TGI in [7], in assay [8], in assay [9] and in [10] was above 100 µM each time.

For the compound `O=C1c2cccc(NCCN=Cc3ccccc3O)c2C(=O)c2c(NCCN=Cc3ccccc3O)cccc21`, the GI50 was 1.48 µM in assay [1]; 0.364 µM in [2]; 0.163 µM in assay [3]; 0.269 µM in assay [4]; 0.258 µM in assay [5]; 0.489 µM in [6]. Besides, the GI50 in assay [7] was 1.88 µM; in assay [8], 0.369 µM; in assay [9], 1.32 µM; in assay [10], 0.353 µM. In addition, the TGI in assay [1] turned out to be 4.57 µM; in assay [2] it was 1.55 µM; in assay [3] it was 2.65 µM; in assay [4], 2.05 µM; in assay [5], 1.38 µM; in assay [6], 2.28 µM. The TGI in [7] turned out to be 5.63 µM; in assay [8] it was 2.47 µM; in [9], 8.82 µM; in assay [10], 1.56 µM.

For `O=S(=O)(/N=c1/scc(-c2ccccc2)n1-c1ccccc1)c1ccc(N2N=C3c4ccccc4CC3C2c2cccs2)cc1` (stereo unspecified), the GI50 in assay [1] was above 100 µM; in assay [2], above 100 µM; in assay [3], above 100 µM; in assay [4], 94.3 µM; in assay [5] it was 94.2 µM; in assay [6], 52.1 µM. The GI50 in assay [7] was 81.5 µM; in assay [8] it was 47.2 µM; in assay [9] it was 42.5 µM; in assay [10], 19 µM. In addition, the TGI in [1], in assay [2], in assay [3], in assay [4], in assay [5] and in [6] was above 100 µM throughout. Besides, the TGI in assay [7] is above 100 µM; in assay [8], above 100 µM; in assay [9], above 100 µM; in [10], 63.7 µM.

Consider `CCN(CC)C1CCC(Nc2c(C(C)=O)cnc3ccc(-c4ccc(O)c(Cl)c4)cc23)CC1` (stereo unspecified), for which the GI50 in assay [1] is 0.551 µM; in [2], 0.875 µM; in assay [3] it was 0.152 µM; in [4] it was 0.45 µM; in [5], 0.933 µM; in assay [6], 0.741 µM. Also, the GI50 is 0.468 µM in assay [7], 0.818 µM in assay [8], 0.485 µM in assay [9] and 0.253 µM in assay [10]. The TGI is 7.87 µM in assay [1]; above 35.5 µM in assay [2]; 5.33 µM in assay [3]; above 60 µM in assay [4]; 4.38 µM in [5]; 12.5 µM in assay [6]. For the same compound, the TGI in [7] was 15.4 µM; in assay [8] it was 14 µM; in [9], above 37.8 µM; in assay [10] it was 1.18 µM.

As for `CC(=O)Oc1ccc(/C(=C(\C)c2ccc(Cl)cc2)c2ccc(OCCN3CCCCC3)cc2)cc1`, the GI50 in [1] was 1.84 µM; in [2] it was 1.92 µM; in [3] it was 1.55 µM; in assay [4] it was 1.69 µM; in assay [5], 1.85 µM; in [6] it was 2.04 µM. In addition, the GI50 in [7] was 1.69 µM; in assay [8], 2.15 µM; in assay [9] it was 2.13 µM; in assay [10] it was 1.73 µM. Also, the TGI was found to be 3.57 µM in [1]; 3.83 µM in [2]; 3.77 µM in assay [3]; 3.52 µM in assay [4]; 3.93 µM in [5]; 3.89 µM in assay [6]. The TGI in assay [7] was 3.17 µM; in assay [8], 4.88 µM; in assay [9] it was 4.03 µM; in [10], 5.36 µM.

As to `COc1ccc(/C=C2\C=C(c3ccccc3)N(CCc3ccccc3)C2=O)cc1OC`, the GI50 in [1] is 6.68 µM; in assay [2] it was 13.2 µM; in assay [3] it was 1.89 µM; in [4], 4.88 µM; in [5] it was 13.6 µM; in assay [6] it was 4.16 µM. In addition, the GI50 in [7] is 8.84 µM; in assay [8], 6.09 µM; in [9], 3.53 µM. Besides, the TGI is 23 µM in assay [1]; above 100 µM in [2]; 6.28 µM in assay [3]; 21.8 µM in assay [4]; above 100 µM in assay [5]; 17.9 µM in assay [6]. For the same compound, the TGI is above 100 µM in [7], 22.5 µM in assay [8] and 14 µM in [9].

`Clc1cc(Cl)cc(N2N=C(c3cccc(Nc4ccncc4)c3)CC2c2ccc3c(c2)OCO3)c1` (stereo unspecified): the GI50 in assay [1] is 1.84 µM; in assay [2], 1.71 µM; in assay [3], 1.38 µM; in [4], 1.66 µM; in [5] it was 1.67 µM; in [6] it was 1.37 µM. Moreover, the GI50 in [7] was 1.75 µM; in [9] it was 1.69 µM; in assay [10], 1.88 µM. The TGI in [1] was determined as 3.31 µM; in [2] it was 3.13 µM; in assay [3], 2.99 µM; in [4], 3.13 µM; in assay [5] it was 3.29 µM; in assay [6] it was 2.72 µM. The values for the TGI in assay [7], in assay [9] and in assay [10] were 3.37 µM, 3.06 µM and 4.49 µM, respectively.
